Data from patent US5089623A, “Certain imidate insecticides” (Imperial Chemical Industries Plc, priority 1990, dated 1992).

Experiments:
Format in all cases: in vivo
[1] = system: Housefly [Musca domestica]; test: Housefly insecticidal test (HF); details: per 25 female houseflies, 48 hours
[2] = system: Tobacco Budworm [Heliothis virescens (Fabricius)] eggs; test: Tobacco budworm egg test (TBW-E); details: percent in solution
Description: Eggs: Paper towel patches of 2-day old eggs of the tobacco budworm were dipped in acetone solutions of the test compound and placed in petri dishes containing a portion of larval rearing medium. […] Test concentrations ranged from 0.1% downward.

[3] = system: Cabbage Looper [Trichoplusia ni (Hubner)]; test: Cabbage looper test (CL); details: second-instar larvae, 3-5 days, percent in solution
Protocol: Test compounds were diluted in a 50-50 acetone-water solution. Cotyledons of hyzini squash (Calabacita abobrinha), approximately 1×1.5 inches, were immersed in the test solutions for 2-3 seconds and placed on a wire screen to dry. The dried leaves were placed in petri dishes containing a moistened piece of filter paper and infested with 5 second-instar cabbage looper larvae. The dishes were placed in a high humidity chamber. Mortality of the larvae was recorded 3-5 days later. Test concentrations ranged from 0.1% downward. The LC-50 value is expressed below in Table 3 under the heading "CL" in terms of percent of the test compound in solution.

Structure (SMILES)	LC50 HF [1] [µg]	LC50 TBW E [2] [%]	LC50 CL [3] [%]
CC(C)C(=Nc1ccc(F)cc1)OCc1cccc(Oc2cccc(Cl)c2)c1 [Compound 205]	50	> 0.1	0.004
CCC(C)C(=Nc1ccc2c(c1)OCO2)OCc1cccc(Oc2ccccc2)c1 (stereo not drawn) [Compound 185]	13	0.075	0.0006
COc1ccc(N=C(OCc2cccc(Oc3ccccc3)c2)C(C)C)c(C)c1 [Compound 149]	17	0.05	0.007
CC(C)C(=Nc1ccc(Cl)cc1Cl)OCc1cccc(Oc2ccccc2)c1 [Compound 311]	22	0.1	0.0017
Cc1ccc(Cl)cc1N=C(OCc1cccc(Oc2ccccc2)c1)C(C)C [Compound 263]	> 100	> 0.1	0.05
CC(C)C(=Nc1ccc(F)c(Cl)c1)OCc1cccc(Oc2ccc(C(F)(F)F)cc2)c1 [Compound 247]	> 100	> 0.1	0.009
FC(F)(F)c1cccc(N=C(OCc2cccc(Oc3ccccc3)c2)C2CC2)c1 [Compound 86]	65	> 0.01	0.013
CC(C)C(=Nc1cc(Cl)c(Cl)cc1Cl)OCc1cccc(Oc2ccccc2)c1 [Compound 18]	> 100	0.09	0.008
CCC(C)C(=Nc1ccc(Cl)cc1)OCc1cccc(Oc2ccccc2)c1 (stereo not drawn) [Compound 26]	> 100	> 0.1	0.007
CC(C)(C)C(=Nc1ccc(F)cc1)OCc1cccc(Oc2ccccc2)c1 [Compound 48]	> 100	> 0.05	0.03
CCCC(=Nc1ccc(F)c(Cl)c1)OCc1cccc(Oc2ccccc2)c1 [Compound 123]	> 100	> 0.1	0.012
CC(C)C(=Nc1ccc(Cl)cc1)OCc1coc(Cc2ccccc2)c1 [Compound 484]	16	> 0.1	0.003
CSc1cccc(N=C(OCc2cccc(Oc3ccccc3)c2)C(C)C)c1 [Compound 166]	22	> 0.1	0.009
CCC(CC)C(=Nc1ccc(Cl)cc1)OCc1cccc(Oc2ccc(F)cc2)c1 [Compound 290]	> 100	> 0.1	0.017
CC(C)C(=Nc1cccc(OC(F)(F)C(F)F)c1)OCc1cccc(Oc2ccc(F)cc2)c1 [Compound 288]	> 100	> 0.1	0.0015
CC(C)C(=Nc1ccc(C#N)cc1)OCc1cccc(Oc2cccc(Cl)c2)c1 [Compound 208]	27	> 0.1	0.0035
COc1ccc(Cl)cc1N=C(OCc1cccc(Oc2ccccc2)c1)C(C)C [Compound 264]	> 100	> 0.1	0.03
CC(C)C(=Nc1ccc(F)c(F)c1)OCc1cccc(Oc2ccc(C#N)cc2)c1 [Compound 212]	20	0.045	0.0005
CC(Br)C(=Nc1ccc(F)c(Cl)c1)OCc1cccc(Oc2ccc(F)cc2)c1 (stereo not drawn) [Compound 305]	> 100	> 0.1	0.048
CSc1ccc(N=C(OCc2cccc(Oc3ccccc3)c2)C(Cl)Cl)cc1 [Compound 141]	35	> 0.1	< 0.1
CC(C)C(=Nc1ccc(F)c(Cl)c1)OCc1ccc(Cl)c(Oc2ccc(F)cc2)c1 [Compound 448]	16	0.03	0.003
CC(C)C(=Nc1ccc(C#N)c(F)c1)OCc1cccc(Oc2ccc(F)cc2)c1 [Compound 222]	32	> 0.1	0.0015

Structure (SMILES)	LC50 HF [1] [µg]	LC50 TBW E [2] [%]	LC50 CL [3] [%]
CC(C)C(=Nc1ccc2c(c1)OCO2)OCc1cccc(Oc2ccccc2F)c1 [Compound 183]	10	0.075	0.00075
CC(C)(C)C(=Nc1cccc(Br)c1)OCc1cccc(Oc2ccccc2)c1 [Compound 134]	> 100	> 0.1	0.015
COc1cc(N=C(OCc2cccc(Oc3ccccc3)c2)C(C)C)c(OC)cc1Cl [Compound 99]	> 100	> 0.1	0.016
CC(C)C(=Nc1ccc2c(c1)OCO2)OCc1cc(Oc2ccc(F)cc2)ccc1Cl [Compound 274]	> 100	> 0.1	0.1
CC(C)C(=Nc1ccc(OC(F)(F)F)c(Cl)c1)OCc1cc(F)cc(Oc2ccc(F)cc2)c1 [Compound 328]	> 100	> 0.1	0.03
CC(C)C(=Nc1cccc(C(F)(F)F)c1)OCc1ccc(OCc2ccccc2)cc1 [Compound 476]	> 100	> 0.1	0.015
CC(C)C(=Nc1cccc(I)c1)OCc1cccc(Oc2ccccc2)c1 [Compound 136]	9	0.08	0.004
CC(C)C(=Nc1ccc(Br)cc1F)OCc1cccc(Oc2ccccc2)c1 [Compound 79]	6	0.05	0.003
Cc1c(COC(=Nc2ccc(F)cc2)C(C)C)cccc1-c1ccccc1 [Compound 458]	100	> 0.05	0.007
COc1cccc(N=C(OCc2cccc(Oc3ccc(F)cc3)c2)C(C)C)c1 [Compound 201]	15	> 0.1	0.004
CC(C)C(=Nc1ccc(F)c(Cl)c1)OCc1cccc(Oc2ccncc2)c1 [Compound 470]	25	> 0.1	0.02
CC(C)C(=Nc1ccc(F)cc1)OCc1cccc(Oc2ccc(F)c(F)c2)c1 [Compound 265]	10	0.07	0.00025
CC(C)c1ccc(N=C(OCc2cccc(Oc3ccccc3)c2)C(C)(C)C)cc1 [Compound 165]	> 100	> 0.1	0.007
Cc1ccc(Cl)c(N=C(OCc2cccc(Oc3ccccc3)c2)C(C)C)c1 [Compound 93]	64	> 0.1	0.005
CC(C)(C)C(=Nc1cccc([N+](=O)[O-])c1)OCc1cccc(Oc2ccccc2)c1 [Compound 175]	> 100	> 0.1	0.018
CCOC(=O)c1ccc(N=C(OCc2cccc(Oc3ccccc3)c2)C(C)C)cc1Cl [Compound 104]	> 100	> 0.1	0.004
CC(C)C(=Nc1ccc(Cl)c(Cl)c1)OCc1cccc(Oc2ccc(F)cc2F)c1 [Compound 213]	> 100	> 0.1	0.00075
Cc1cccc(N=C(OCc2cccc(Oc3ccccc3)c2)C(C)C)c1C [Compound 249]	36	0.0365	0.0025
CC(C)C(=Nc1ccc2c(c1)OCO2)OCc1cccc(Oc2ccccc2)n1 [Compound 467]	6	0.04	0.003
Cc1cccc(N=C(OCc2cccc(Oc3ccccc3)c2)C(C)C)c1C [Compound 148]	18	0.025	0.0025
CC(C)C(=Nc1c(F)c(F)c(F)c(F)c1F)OCc1cccc(Oc2ccc(F)cc2F)c1 [Compound 232]	> 100	> 0.1	0.004
CC(C)C(=Nc1ccc(Br)c(Br)c1)OCc1cccc(Oc2ccccc2)c1 [Compound 252]	34	0.04	0.0035
